# Molecular target: human Edg-2 receptor (LPA1 receptor) (Homo sapiens, UniProt Q92633)
# Experiment: Edg-2 receptor inhibition by FLIPR calcium fluorescence measurement (LPA-mediated calcium liberation)
# Assay type: cell-based
# Conditions: CHO cells stably overexpressing human Edg-2 receptor; LPA 18:1 100 nM; fluo-4 fluorescence; triplicate; read-out: Inhibitory concentrations IC50 for inhibition of the Edg-2 receptor
# Procedure: A) Determination of Edg-2 Receptor Inhibition by Fluorescence Imaging Plate Reader (FLIPR) Measurements
# The inhibition of the Edg-2 receptor (LPA1 receptor) by the compounds of the invention was quantified by the inhibitory effect on the LPA-mediated calcium liberation in a cell-based calcium fluorescence assay by use of Chinese hamster ovarian (CHO) cells in which the human Edg-2 receptor was stably overexpressed (FIp-In system, Invitrogen). […] Changes in intracellular calcium were determined by fluorescence measurement with the calcium-sensitive dye fluo-4 (Invitrogen) in a fluorescence imaging plate reader (FLIPR, […]).
# CHO cells stably overexpressing the human Edg-2 receptor were seeded (40.000 per well) in black clear-bottomed poly-D-lysine-coated 96 well plates (Becton Dickinson, Biocoat cellware) approximately 18-24 h prior to the experiments. Cells were grown in an incubator at 37° C., 5% carbon dioxide and 95% humidity in cell culture media based on F-12 glutamax media (Gibco, #31765) supplemented with 1% (vol/vol) penicilline/streptomycine (PAN, #P06-07100), 10% (vol/vol) fetal calf serum (FCS, PAA, #A15-151) and hygromycin B (Invitrogen, #10687-010) 300 mg/l (final concentrations).
# Prior to the FLIPR experiment, cells were loaded with fluo-4 acetoxymethyl ester (fluo-4 AM, Invitrogen, #F14202) for 60 min in an incubator at 37° C., 5% carbon dioxide and 95% humidity in dye-loading buffer consisting of Hanks' Balanced Salt Solution (HBSS, Invitrogen, #14065049) supplemented with fluo-4 AM at 2 μM (all data given for final concentration), Pluronic® F-127 0.05% (vol/vol) (Invitrogen, #P-3000 MP), HEPES 20 mM (Gibco, #15630), probenecid 2.5 mM (Sigma, #P-8761) and bovine serum albumin 0.05% (BSA, Sigma, #A-6003), adjusted to pH 7.5 with sodium hydroxide. During cell loading, fluo-4 AM is cleaved by intracellular esterase resulting in trapping of the dye fluo-4 within the cells. Loading was terminated by washing of the cells in a cell washer (Tecan Power washer) three times with the buffer specified afore but without fluo-4 AM and BSA. This latter buffer was also used as the buffer in the subsequent cell fluorescence measurements.
# The dye-loaded and washed cells were pre-incubated for approximately 5 min with various concentrations of the test compound added as a solution in DMSO (0.3% vol/vol maximum final concentration of DMSO), or with DMSO in the respective concentration only (positive control). Subsequent addition of LPA (18:1, 1-oleoyl-sn-glycerol 3-phosphate; 100 nM final concentration) leads to liberation of intracellular calcium from internal stores resulting in a large transient increase of the fluo-4 fluorescence signal which was monitored over approximately 3 min. The percent inhibition caused by the test compound was determined from the maximum fluorescence response after LPA addition to cells pre-incubated with the compound as compared to the maximum fluorescence response after LPA addition to cells pre-incubated with DMSO only. All fluorescence values were corrected for the baseline fluorescence values obtained with cells which were pre-incubated with DMSO only and were not treated with LPA (baseline control). All measurements were performed in triplicate. From the percent inhibitions the inhibitory concentration IC50 was determined.
# human Edg-2 receptor (LPA1 receptor), sequence (Q92633 whole entry): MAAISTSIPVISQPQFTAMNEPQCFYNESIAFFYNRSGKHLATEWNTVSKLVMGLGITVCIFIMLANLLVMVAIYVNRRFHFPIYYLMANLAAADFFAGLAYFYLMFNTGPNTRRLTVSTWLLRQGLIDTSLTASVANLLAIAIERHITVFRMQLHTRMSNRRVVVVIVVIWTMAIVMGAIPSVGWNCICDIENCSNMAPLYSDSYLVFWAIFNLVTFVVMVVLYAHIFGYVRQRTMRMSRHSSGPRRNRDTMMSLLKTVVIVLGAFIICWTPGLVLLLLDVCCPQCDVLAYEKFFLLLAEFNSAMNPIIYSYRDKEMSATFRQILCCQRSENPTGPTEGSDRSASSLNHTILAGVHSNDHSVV
row,SMILES,IC50 [µM]
1,COc1ccc(C(=O)NC2(C(=O)O)Cc3ccccc3C2)cc1OCCCC1CC(c2ccccc2)=NO1 (stereo not shown) [Example 53],1 to 30
2,COc1ccc(C(=O)NC2(C(=O)O)Cc3ccccc3C2)cc1OCCc1cc(-c2ccc(Cl)cc2)no1 [Example 54],1 to 30
3,COc1ccnc(COc2cc(C(=O)NC3(C(=O)O)Cc4ccccc4C3)ccc2OC)c1 [Example 55],1 to 30
4,CCC1(COc2cc(C(=O)NC3(C(=O)O)Cc4ccccc4C3)ccc2OC)COCOC1 [Example 56],1 to 30
5,COc1ccc(C(=O)NC2(C(=O)O)Cc3ccccc3C2)cc1OCC1CCC(C)CC1 (stereo not shown) [Example 57],1 to 30
6,C=CC1CN2CCC1CC2COc1cc(C(=O)NC2(C(=O)O)Cc3ccccc3C2)ccc1OC (stereo not shown) [Example 58],1 to 30
7,COc1ccc(C(=O)NC2(C(=O)O)Cc3ccccc3C2)cc1OCCCCC(C)C [Example 59],1 to 30
8,COc1ccc(CCCCOc2cc(C(=O)NC3(C(=O)O)Cc4ccccc4C3)ccc2OC)cc1 [Example 60],1 to 30
9,COc1ccc(C(=O)NC2(C(=O)O)Cc3ccccc3C2)cc1OCCCC1CCCCC1 [Example 61],1 to 30
10,COc1ccc(C(=O)NC2(C(=O)O)Cc3ccccc3C2)cc1OCCCc1ccc(Cl)cc1 [Example 62],1 to 30
11,COc1ccc(C(=O)NC2(C(=O)O)Cc3ccccc3C2)cc1OCCC1CCCN1C (stereo not shown) [Example 64],1 to 30
12,COc1ccc(C(=O)NC2(C(=O)O)Cc3ccccc3C2)cc1OCc1cc(C)ccc1C [Example 65],1 to 30
13,COc1ccc(C(=O)NC2(C(=O)O)Cc3ccccc3C2)cc1OCCC1CCN(Cc2ccccc2)CC1 [Example 66],1 to 30
14,CCOC(=O)N1CCN(CCOc2cc(C(=O)NC3(C(=O)O)Cc4ccccc4C3)ccc2OC)CC1 [Example 67],1 to 30
15,COc1ccc(C(=O)NC2(C(=O)O)Cc3ccccc3C2)cc1OCCCN1CCCC1=O [Example 68],1 to 30
16,COc1ccc(C(=O)NC2(C(=O)O)Cc3ccccc3C2)cc1OCc1nc2ccccc2n1C [Example 69],1 to 30
17,COc1ccc(C(=O)NC2(C(=O)O)Cc3ccccc3C2)cc1OCCc1nc(-c2ccccc2)oc1C [Example 70],1 to 30
18,CCn1cc(COc2cc(C(=O)NC3(C(=O)O)Cc4ccccc4C3)ccc2OC)cn1 [Example 71],1 to 30
19,COc1ccc(C(=O)NC2(C(=O)O)Cc3ccccc3C2)cc1OCc1csc2ccccc12 [Example 72],1 to 30
20,COc1ccc(C(=O)NC2(C(=O)O)Cc3ccccc3C2)cc1OCc1ccc(-n2ccnc2)cc1 [Example 73],1 to 30
21,COc1ccc(C(=O)NC2(C(=O)O)Cc3ccccc3C2)cc1OCc1cc(-c2csc(C)n2)on1 [Example 74],1 to 30
22,COc1ccc(C(=O)NC2(C(=O)O)Cc3ccccc3C2)cc1OCCSc1nccn1C [Example 75],1 to 30
23,COc1ccc(C(=O)NC2(C(=O)O)Cc3ccccc3C2)cc1OCc1ccc(N2CCCC2)nc1 [Example 76],1 to 30
24,COc1ccc(C(=O)NC2(C(=O)O)Cc3ccccc3C2)cc1OCc1ncc(C)c(NC(C)=O)c1C [Example 77],1 to 30
25,COc1ccc(C(=O)NC2(C(=O)O)Cc3ccccc3C2)cc1OCC1CCC(C(=O)O)C1 (stereo not shown) [Example 78],1 to 30

row,SMILES,IC50 [µM]
1,COc1ccc(C(=O)NC2(C(=O)O)Cc3ccccc3C2)cc1OCc1cn(-c2ccccc2)nn1 [Example 79],1 to 30
2,COc1ccc(C(=O)NC2(C(=O)O)Cc3ccccc3C2)cc1OCc1cc(C)n(C)n1 [Example 80],1 to 30
3,COc1ccc(C(=O)NC2(C(=O)O)Cc3ccccc3C2)cc1OCCC1=CC[C@H]2C[C@@H]1C2(C)C [Example 81],< 0.1
4,COc1ccc(C(=O)NC2(C(=O)O)Cc3ccccc3C2)cc1OCC1CC1C (stereo not shown) [Example 82],1 to 30
5,CC[C@H](COc1cc(C(=O)NC2(C(=O)O)Cc3ccccc3C2)ccc1OC)N1Cc2ccccc2C1 [Example 83],1 to 30
6,COc1ccc(C(=O)NC2(C(=O)O)Cc3ccccc3C2)cc1OCCCCCC(=O)O [Example 84],1 to 30
7,COc1ccc(C(=O)NC2(C(=O)O)Cc3ccccc3C2)cc1OCCCN1CCCCC1 [Example 85],1 to 30
8,COc1ccc(C(=O)NC2(C(=O)O)Cc3ccccc3C2)cc1OCCC1CC1 [Example 86],1 to 30
9,COc1ccc(C(=O)NC2(C(=O)O)Cc3ccccc3C2)cc1OCC1C[C@H]2C=C[C@@H]1C2 (stereo partly shown) [Example 87],1 to 30
10,COc1ccc(C(=O)NC2(C(=O)O)Cc3ccccc3C2)cc1OCc1c(C)noc1C [Example 88],1 to 30
11,COc1ccc(C(=O)NC2(C(=O)O)Cc3ccccc3C2)cc1OCc1snnc1-c1ccccc1 [Example 89],1 to 30
12,COc1ccc(C(=O)NC2(C(=O)O)Cc3ccccc3C2)cc1OCC1CC(c2ccccn2)=NO1 (stereo not shown) [Example 90],1 to 30
13,"COc1ccc(C(=O)NC2(C(=O)O)Cc3ccccc3C2)cc1OCCc1cccc(C#N)c1 [Example 94, 2-{3-[2-(3-Cyano-phenyl)-ethoxy]-4-methoxy-benzoylamino}-indane-2-carboxylic acid]",< 0.1
14,"COc1ccc(C(=O)NC2(C(=O)O)Cc3ccccc3C2)cc1OCCc1cccc(C(N)=O)c1 [Example 95, 2-{3-[2-(3-Carbamoyl-phenyl)-ethoxy]-4-methoxy-benzoylamino}-indane-2-carboxylic acid]",1 to 30
15,"COc1ccc(C(=O)NC2(C(=O)O)Cc3ccccc3C2)cc1OCCc1cccc(C(=O)O)c1 [Example 96, 2-{3-[2-(3-Carboxy-phenyl)-ethoxy]-4-methoxy-benzoylamino}-indane-2-carboxylic acid]",1 to 30
16,"COc1ccc(C(=O)NC2(C(=O)O)Cc3cscc3C2)cc1OCCc1cccc(C)c1 [Example 98, 5-[4-Methoxy-3-(2-m-tolyl-ethoxy)-benzoylamino]-5,6-dihydro-4H-cyclopenta[c]thiophene-5-carboxylic acid]",< 0.1
17,"COc1ccc(C(=O)NC2(C(=O)O)Cc3ccsc3C2)cc1OCCc1cccc(C)c1 (stereo not shown) [Example 99, 5-[4-Methoxy-3-(2-m-tolyl-ethoxy)-benzoylamino]-5,6-dihydro-4H-cyclopenta[b]thiophene-5-carboxylic acid]",< 0.1
18,"COc1ccc(C(=O)NC2(C(=O)O)Cc3cc(Cl)sc3C2)cc1OCCc1cccc(C)c1 (stereo not shown) [Example 100, 2-Chloro-5-[4-methoxy-3-(2-m-tolyl-ethoxy)-benzoylamino]-5,6-dihydro-4H-cyclopenta[b]thiophene-5-carboxylic acid]",< 0.1
19,"COc1ccc(C(=O)NC2(C(=O)O)Cc3cccnc3C2)cc1OCCc1cccc(C)c1 (stereo not shown) [Example 101, 6-[4-Methoxy-3-(2-m-tolyl-ethoxy)-benzoylamino]-6,7-dihydro-5H-[1]pyrindine-6-carboxylic acid]",1 to 30
20,"CC(=O)c1sc(C(=O)NC2(C(=O)O)Cc3ccccc3C2)cc1OCCc1cccc(C)c1 [Example 102, 2-{[5-Acetyl-4-(2-m-tolyl-ethoxy)-thiophene-2-carbonyl]-amino}-indane-2-carboxylic acid]",0.1 to 1
21,"COc1cc([N+](=O)[O-])c(C(=O)NC2(C(=O)O)Cc3ccccc3C2)cc1OCCc1cccc(Cl)c1 [Example 103, 2-{5-[2-(3-Chloro-phenyl)-ethoxy]-4-methoxy-2-nitro-benzoylamino}-indane-2-carboxylic acid]",1 to 30
22,"COc1cc(Br)c(C(=O)NC2(C(=O)O)Cc3ccccc3C2)cc1OCCc1cccc(Cl)c1 [Example 104, 2-{2-Bromo-5-[2-(3-chloro-phenyl)-ethoxy]-4-methoxy-benzoylamino}-indane-2-carboxylic acid]",1 to 30
23,"COc1cc(Cl)c(C(=O)NC2(C(=O)O)Cc3ccccc3C2)cc1OCCc1cccc(Cl)c1 [Example 105, 2-{2-Chloro-5-[2-(3-chloro-phenyl)-ethoxy]-4-methoxy-benzoylamino}-indane-2-carboxylic acid]",0.1 to 1
24,"COc1c(F)cc(C(=O)NC2(C(=O)O)Cc3ccccc3C2)cc1OCCc1cccc(C)c1 [Example 106, 2-[3-Fluoro-4-methoxy-5-(2-m-tolyl-ethoxy)-benzoylamino]-indane-2-carboxylic acid]",< 0.1

# — patent US8802720B2, “Acylamino-substituted fused cyclopentanecarboxylic acid derivatives and their use as pharmaceuticals” (SANOFI, priority 2008, dated 2014)
